Data as given in US6211155A, “Peptide conjugates derived from thymic hormones, their use as a medicament and compositions containing them” (Institut European de Biologie Cellulaire, priority 1995, dated 2001).
Where no end group is shown, it is not given here.

Columns and labels:
[1] = test system: normal human keratinocytes; test: Synthesis of keratohyalin (filaggrin) by human keratinocytes in primary culture; type: cell-based; conditions: for Stimulation % (keratohyalin synthesis): compared with a control; for Keratin/protein mean (keratohyalin synthesis, Table III): proteins expressed in micrograms/ml
Protocol: (§1) Culture of normal human keratinocytes
(§2) The epidermis is then dissociated under gentle mechanical action, or enzymically, in order to obtain the individual cells. Only the basal cells are capable of multiplying in vitro.
(§3) The culture is carried out at 37° C. in a controlled moist atmosphere ([…] --5% CO2).
(§4) In monolayer culture, the calcium concentration is between 0.05 and 0.1 mM. […] The synthesis of the keratinocytes is maintained. The intercellular spaces are wide: cell connections are maintained by microvillosities and not by tight junctions. While the tonofilaments of the perinuclear space can be seen, they are still not attached to the anchoring plaques.
(§5) Stratification can be induced by increasing the final calcium concentration in the culture medium to 1.2 mM. The formation of desmosomes then appears after 2 hours.
(§6) I ETF derivative No. IX, which has been lyophilized
in Dextran (40 g/l) and which is at a concen- […]
II Crist. SIGMA thymopoietin - at a concentration of […]
(§7) Human keratinocytes are cultured as described by Henning et al. (1983) or Fuchs et al. (1981). Air/liquid cultures are also carried out using the following methodology.
The filaggrins are markers of keratohyalin.
(§8) Indirect fluorescent labeling by the sandwich technique--48 hours after adding calcium to the culture medium (stratification).
human antikeratohyalin (filaggrin) antibody
FITC-labeled goat antihuman Ig G antibody.
(§9) Use of immunofluorescence, with graphic recording, for measuring cell markers.
(§10) Spectrofluorometric assays
(§11) "Perkin Elmer LS-50 B spectrofluorimeter".
(§12) on cell homogenate supernatants.
(§13) LOWRY technique using a Perkin Elmer UV spectrophotometer (cell homogenate supernatants).
(§14) The fluorescence intensity of the cells treated with ETF No. IX is assessed in comparison with the fluorescence intensity of the controls.

[2] = test system: normal human keratinocytes; test: Synthesis of 46-47 KD keratin by human keratinocytes in primary culture; type: cell-based; conditions: compared with a control
Protocol: as §1, §2, §3, §4, §5, §6
in Dextran (40 g/l) and which is at a concen-
tration of 10^-6 M in the final culture medium.
II Crist. SIGMA thymopoietin - at a concentration of
10^-6 M in the final culture medium.
as §7
The cell markers which are selected are the low-molecular-weight 46/47 KD keratins, which are specific for the growth and cell differentiation of the germinative cells.
as §8
rat antihuman 46-47 KD keratin antibody
FITC-labeled mouse antirat Ig G2 antibody.
as §9, §10, §11, §12, §13, §14

Ia+ Langerhans cells = test: Ia+ Langerhans cell density after topical application to mouse ear; type: in vivo, C57-BL/6 mice; conditions: for Number of Ia+ cells per mm^2 of epidermis, batch 1 / Number of Ia+ cells per mm^2 of epidermis, batch 2 / Number of Ia+ cells per mm^2 of epidermis, batch 3 / Number of Ia+ cells per mm^2 of epidermis, batch 4 / Number of Ia+ cells per mm^2 of epidermis, Mean: C 57 BL/6 mice; for Number of Ia+ cells per mm^2 of epidermis, Mean: 4 batches; for Ia+ cells %: relative to PG controls
Protocol: (§15) I--Experimental Samples--Code: ETF
(§16) In solution in propylene glycol at a concentration of 10^-5 M/ml
(§17) 5 to 7-week-old male C 57-BL/6 mice, which are divided into groups of 4 per cage, and which have free access to water and food and which are subjected to a photoperiod of 12 h of light per 24 hours, are given a topical application of the peptide in propylene glycol (50 μl vol) on the dorsal surface of the ear daily for 5 consecutive days.
(§18) The animals are sacrificed on day 6. The ears are removed, with the dorsal and ventral surfaces being separated.
(§19) The tissues of the dorsal surface are immersed in Na EDTA (0.020 M) at 37° C. for 2 h.
(§20) After incubation, the epidermis is removed in the form of an intact sheet, fixed with acetone and rehydrated in PBS (phosphate buffer).
(§21) The Thy 1-2+ and Ia+ EDC (epidermal dendritic cells) are identified by indirect immunofluorescence double labeling.
(§22) In the case of each epidermal sheet, the number of cells per mm^2 is determined using the peripheral regions of the same surface.
The EDC (epidermal dendritic cells) carrying the Ia+ marker were identified using an anti-Ia+ monoclonal antibody.
The epidermal sheets are fixed with acetone and then incubated, at 37° C. for 1 h, in the presence of the anti-Ia+ monoclonal antibody, which has been labeled by the indirect immunoperoxidase method (Kit).
After having been incubated at 37° C. for 10 minutes with a solution of aminoethylcarbazole, the preparation is washed with PBS.
(§23) In the case of each epidermal sheet, the number of Ia+ Langerhans cells or Thy 1.2+ EDCs per square millimeter was determined by means of immunofluorescence, using a confocal Zeiss microscope which was equipped for this purpose, in four peripheral areas of the same surface. At least four animals were studied in each of the groups. The density of Ia+ Langerhans cells and Thy 1.2+ EDCs is shown for each measurement.

[3] = test system: Thy 1.2+ thymocytes of the epidermis; test: Thy 1.2+ epidermal cell density after topical application to mouse ear (immunofluorescence); type: in vivo, C57-BL/6 mice; conditions: for Number of Thy 1.2+ cells per mm^2 of epidermis, batch 1 / Number of Thy 1.2+ cells per mm^2 of epidermis, batch 2 / Number of Thy 1.2+ cells per mm^2 of epidermis, batch 3 / Number of Thy 1.2+ cells per mm^2 of epidermis, batch 4 / Number of Thy 1.2+ cells per mm^2 of epidermis, Mean: C 57 BL/6 mice; for Number of Thy 1.2+ cells per mm^2 of epidermis, Mean: 4 batches; for Thy 1.2+ cells % T: relative to PG controls
Protocol: as §15, §16, §17, §18, §19, §20, §21, §22
The Thy 1.2+ EDC were identified by indirect immunofluorescence double labeling. The epidermal sheets were fixed with acetone and then rehydrated in PBS.
The tissues were labeled simultaneously, at 4° C. for 16 h, with mouse anti-Thy 1.2+ antibody which was diluted 1:100. The tissue samples were washed three times in PBS for 60 min and then incubated, at 37° C. for 60 min, either with goat antimouse antibody which was coupled to rhodamine and diluted 1:20, or with goat antirabbit antibody which was coupled to fluorescein (fluorescine and diluted 1:20 in PBS. The tissues were then washed in PBS before being mounted as previously described.
as §23

thymopoietin [reference compound]
Stimulation % (keratohyalin synthesis) ([1]; Concentration 10^-6 M): 35% | Keratin/protein mean (keratohyalin synthesis, Table III) ([1]; Concentration 10^-6 M): 4.99 | Stimulation % (46-47 KD keratin synthesis) ([2]; Concentration 10^-6 M): 19%

A-Gln-Gly-Gly-Ser-Asn-NH2 (QGGSN; not fully specified (N-terminus, C-terminus)) [ETF No. IX, A not specified; lyophilized in Dextran for the test]
Stimulation % (keratohyalin synthesis) ([1]; Concentration 10^-6 M): 62% | Keratin/protein mean (keratohyalin synthesis, Table III) ([1]; Concentration 10^-6 M): 5.97 | Stimulation % (keratohyalin synthesis) ([1]; Concentration 10^-8 M): 83% | Keratin/protein mean (keratohyalin synthesis, Table III) ([1]; Concentration 10^-8 M): 6.75 | Stimulation % (keratohyalin synthesis) ([1]; Concentration 10^-10 M): 39% | Keratin/protein mean (keratohyalin synthesis, Table III) ([1]; Concentration 10^-10 M): 5.13 | Stimulation % (keratohyalin synthesis) ([1]; Concentration 10^-12 M): 38% | Keratin/protein mean (keratohyalin synthesis, Table III) ([1]; Concentration 10^-12 M): 5.11 | Stimulation % (46-47 KD keratin synthesis) ([2]; Concentration 10^-6 M): 90% | Stimulation % (46-47 KD keratin synthesis) ([2]; Concentration 10^-8 M): 95% | Stimulation % (46-47 KD keratin synthesis) ([2]; Concentration 10^-10 M): 86% | Stimulation % (46-47 KD keratin synthesis) ([2]; Concentration 10^-12 M): 41%

A-Arg-Lys-Asp-Val-NH2 (RKDV; not fully specified (N-terminus, C-terminus)) [ETF-XIX, A not specified for the tested sample]
Number of Ia+ cells per mm^2 of epidermis, batch 1 (Ia+ Langerhans cells; dose 0.10 Nanog.): 360 cells per mm^2 | Number of Ia+ cells per mm^2 of epidermis, batch 2 (Ia+ Langerhans cells; dose 0.10 Nanog.): 390 cells per mm^2 | Number of Ia+ cells per mm^2 of epidermis, batch 3 (Ia+ Langerhans cells; dose 0.10 Nanog.): 378 cells per mm^2 | Number of Ia+ cells per mm^2 of epidermis, batch 4 (Ia+ Langerhans cells; dose 0.10 Nanog.): 320 cells per mm^2 | Number of Ia+ cells per mm^2 of epidermis, Mean (Ia+ Langerhans cells; dose 0.10 Nanog.): 362.00 cells per mm^2 | Ia+ cells % (Ia+ Langerhans cells; dose 0.10 Nanog.): 253% | Number of Ia+ cells per mm^2 of epidermis, batch 1 (Ia+ Langerhans cells; dose 0.50 Nanog.): 388 cells per mm^2 | Number of Ia+ cells per mm^2 of epidermis, batch 2 (Ia+ Langerhans cells; dose 0.50 Nanog.): 398 cells per mm^2 | Number of Ia+ cells per mm^2 of epidermis, batch 3 (Ia+ Langerhans cells; dose 0.50 Nanog.): 386 cells per mm^2 | Number of Ia+ cells per mm^2 of epidermis, batch 4 (Ia+ Langerhans cells; dose 0.50 Nanog.): 400 cells per mm^2 | Number of Ia+ cells per mm^2 of epidermis, Mean (Ia+ Langerhans cells; dose 0.50 Nanog.): 393.00 cells per mm^2 | Ia+ cells % (Ia+ Langerhans cells; dose 0.50 Nanog.): 283% | Number of Ia+ cells per mm^2 of epidermis, batch 1 (Ia+ Langerhans cells; dose 1.00 Nanog.): 400 cells per mm^2 | Number of Ia+ cells per mm^2 of epidermis, batch 2 (Ia+ Langerhans cells; dose 1.00 Nanog.): 410 cells per mm^2 | Number of Ia+ cells per mm^2 of epidermis, batch 3 (Ia+ Langerhans cells; dose 1.00 Nanog.): 438 cells per mm^2 | Number of Ia+ cells per mm^2 of epidermis, batch 4 (Ia+ Langerhans cells; dose 1.00 Nanog.): 415 cells per mm^2 | Number of Ia+ cells per mm^2 of epidermis, Mean (Ia+ Langerhans cells; dose 1.00 Nanog.): 415.75 cells per mm^2 | Ia+ cells % (Ia+ Langerhans cells; dose 1.00 Nanog.): 306% | Number of Thy 1.2+ cells per mm^2 of epidermis, batch 1 ([3]; dose 0.10 Nanog.): 216 cells per mm^2 | Number of Thy 1.2+ cells per mm^2 of epidermis, batch 2 ([3]; dose 0.10 Nanog.): 210 cells per mm^2 | Number of Thy 1.2+ cells per mm^2 of epidermis, batch 3 ([3]; dose 0.10 Nanog.): 219 cells per mm^2 | Number of Thy 1.2+ cells per mm^2 of epidermis, batch 4 ([3]; dose 0.10 Nanog.): 212 cells per mm^2 | Number of Thy 1.2+ cells per mm^2 of epidermis, Mean ([3]; dose 0.10 Nanog.): 214.25 cells per mm^2 | Thy 1.2+ cells % T ([3]; dose 0.10 Nanog.): 143% | Number of Thy 1.2+ cells per mm^2 of epidermis, batch 1 ([3]; dose 0.50 Nanog.): 220 cells per mm^2 | Number of Thy 1.2+ cells per mm^2 of epidermis, batch 2 ([3]; dose 0.50 Nanog.): 215 cells per mm^2 | Number of Thy 1.2+ cells per mm^2 of epidermis, batch 3 ([3]; dose 0.50 Nanog.): 228 cells per mm^2 | Number of Thy 1.2+ cells per mm^2 of epidermis, batch 4 ([3]; dose 0.50 Nanog.): 216 cells per mm^2 | Number of Thy 1.2+ cells per mm^2 of epidermis, Mean ([3]; dose 0.50 Nanog.): 219.75 cells per mm^2 | Thy 1.2+ cells % T ([3]; dose 0.50 Nanog.): 149% | Number of Thy 1.2+ cells per mm^2 of epidermis, batch 1 ([3]; dose 1.00 Nanog.): 227 cells per mm^2 | Number of Thy 1.2+ cells per mm^2 of epidermis, batch 2 ([3]; dose 1.00 Nanog.): 238 cells per mm^2 | Number of Thy 1.2+ cells per mm^2 of epidermis, batch 3 ([3]; dose 1.00 Nanog.): 230 cells per mm^2 | Number of Thy 1.2+ cells per mm^2 of epidermis, batch 4 ([3]; dose 1.00 Nanog.): 225 cells per mm^2 | Number of Thy 1.2+ cells per mm^2 of epidermis, Mean ([3]; dose 1.00 Nanog.): 230.00 cells per mm^2 | Thy 1.2+ cells % T ([3]; dose 1.00 Nanog.): 161%
